Reference: patent US9770026B2, “Substituted pyrimidine compound and uses thereof” (Shenyang Sinochem Agrochemicals R&D Co., Ltd., priority 2012, dated 2017)

Columns and labels:
wheat powdery mildew = assay: protectant activity in vivo against wheat powdery mildew; details: for control effect against wheat powdery mildew (%): protectant activity
corn rust = assay: protectant activity in vivo against corn rust; details: for control effect against corn rust (%): protectant activity
[1] = system: Green peach aphids (Myzus Persicae Sulzer); assay: bioactivity test against green peach aphid, airbrush foliar spray; assay type: in vivo; details: for Insecticidal activity against peach aphid (%): contrastive test
Protocol: (§1) Compounds were dissolved in mixed solvent (acetone:methanol=1:1), and diluted to required concentration with water containing 0.1% of tween 80.
(§2) Diamond back moth, armyworm, peach aphid and carmine spider mite were used as targets and the method of spraying by airbrush was used for determination of insecticidal biassays.
Method: Filter papers were put in culture dishes (Diameter=6 cm), and water was dripped on filter papers for preserving moisture. Green peach aphids (Myzus Persicae Sulzer) were maintained on cabbage. Leaves (Diameter=3 cm) of approximately 15-30 aphids were put in the culture dishes. Bioactivity tests were used the method of Airbrush Foliar Spray, pressure=10 psi (0.7 kg/cm2), spray volume=0.5 mL. The studies were conducted at […] 25±1 C in incubator cabinets with 60±5% RH. Survey the survival aphids after 48 hrs and calculate the death rates.

carmine spider mite = assay: bioactivity test against carmine spider mite, airbrush spray; assay type: in vivo; details: for Insecticidal activity against carmine spider mite (% ): contrastive test; for control against carmine spider mite: mortality after 72 hrs
Protocol: as §1, §2
The method: Broadbean shoots with two true leaves in pot were taken, the healthy adults of carmine spider mite were inoculated to the leaves. The adults were counted and then sprayed with airbrush at the pressure of 0.7 kg/cm^2 and at dose of 0.5 ml. 3 replicates were set for each treatment. And then they were maintained in standard observation room. Scores were conducted and mortalities were calculated after 72 hrs.

armyworm = assay: bioactivity test against armyworm, airbrush spray; assay type: in vivo; details: 600 ppm, mortality after 72 h
Protocol: as §1, §2
The method of spraying by airbrush: The corn leaves were made into plates of 2 cm diameter by use of punch. A test solution (0.5 ml) was sprayed by airbrush at the pressure of 0.7 kg/cm^2 to both sides of every plate. 10 Second instar larvae were put into the petri-dishes after the leaf disc air-dried and 3 replicates were set for each treatment. Then the insects were maintained in observation room (25 °C, 60˜70% R.H.). Scores were conducted and mortalities were calculated after 72 h.

cucumber downy mildew = assay: protectant activity in vivo against cucumber downy mildew; details: for pest or weed control at 100 ppm: read-out: protectant activity against cucumber downy mildew in vivo, 100 ppm
[2] = 10 ppm, death rate after 48 hrs
[3] = 100 ppm, death rate after 48 hrs
[4] = 600 ppm, death rate after 48 hrs

CC(F)c1ncnc(NCCc2ccc(Oc3ncc(C(F)(F)F)cc3Cl)cc2)c1Cl (stereo not shown) [CK2, reference compound]
control effect against wheat powdery mildew (%) (wheat powdery mildew; 6.25 mg/L): 0%
control effect against wheat powdery mildew (%) (wheat powdery mildew; 25 mg/L): 80%
control effect against wheat powdery mildew (%) (wheat powdery mildew; 100 mg/L): 100%
control effect against wheat powdery mildew (%) (wheat powdery mildew; 400 mg/L): 100%
control effect against corn rust (%) (corn rust; 6.25 mg/L): 85%
control effect against corn rust (%) (corn rust; 25 mg/L): 100%
control effect against corn rust (%) (corn rust; 100 mg/L): 100%
control effect against corn rust (%) (corn rust; 400 mg/L): 100%
Insecticidal activity against peach aphid (%) ([1]; 1.25 mg/L): 0%
Insecticidal activity against peach aphid (%) ([1]; 2.5 mg/L): 23%
Insecticidal activity against peach aphid (%) ([1]; 5 mg/L): 37%
Insecticidal activity against peach aphid (%) ([1]; 10 mg/L): 95%
Insecticidal activity against peach aphid (%) ([1]; 100 mg/L): 100%
Insecticidal activity against peach aphid (%) ([1]; 600 mg/L): 100%
Insecticidal activity against carmine spider mite (% ) (carmine spider mite; 10 mg/L): 32%
Insecticidal activity against carmine spider mite (% ) (carmine spider mite; 100 mg/L): 100%
Insecticidal activity against carmine spider mite (% ) (carmine spider mite; 600 mg/L): 100%

CCc1ncnc(NCCc2ccc(Oc3ncc(C(F)(F)F)cc3Cl)c(Cl)c2)c1Cl [Compound I-1472]
protectant activity against wheat powdery mildew in vivo (wheat powdery mildew; 100 ppm): 100%
protectant activity against wheat powdery mildew in vivo (wheat powdery mildew; 400 ppm): 100%
protectant activity against corn rust in vivo (corn rust; 400 ppm): 100%
control (test results against green peach aphid) [1, 2]: 100%
control (test results against green peach aphid) [1, 3]: 100%
control (test results against green peach aphid) [1, 4]: 100%
control (test results against armyworm) (armyworm): 100%
control against carmine spider mite (carmine spider mite; 600 ppm): 100%

CCc1ncnc(NCCc2ccc(Oc3ncccc3C(F)(F)F)cc2)c1Cl [Compound I-987]
protectant activity against wheat powdery mildew in vivo (wheat powdery mildew; 100 ppm): 100%
protectant activity against wheat powdery mildew in vivo (wheat powdery mildew; 400 ppm): 100%
protectant activity against corn rust in vivo (corn rust; 100 ppm): 100%
protectant activity against corn rust in vivo (corn rust; 400 ppm): 100%
control (test results against green peach aphid) [1, 2]: 100%
control (test results against green peach aphid) [1, 3]: 100%
control (test results against green peach aphid) [1, 4]: 100%
protectant activity against cucumber downy mildew in vivo (cucumber downy mildew; 100 ppm): 100%
protectant activity against cucumber downy mildew in vivo (cucumber downy mildew; 400 ppm): 100%
Insecticidal activity against carmine spider mite (% ) (carmine spider mite; 10 mg/L): 80%
Insecticidal activity against carmine spider mite (% ) (carmine spider mite; 100 mg/L): 100%
Insecticidal activity against carmine spider mite (% ) (carmine spider mite; 600 mg/L): 100%
control against carmine spider mite (carmine spider mite; 100 ppm): 100%
control against carmine spider mite (carmine spider mite; 600 ppm): 100%

Cc1ncnc(NCCc2ccc(Oc3ccc(C(F)(F)F)cn3)cc2)c1Cl.Cl [Compound I-6730]
protectant activity against wheat powdery mildew in vivo (wheat powdery mildew; 25 ppm): 100%
protectant activity against wheat powdery mildew in vivo (wheat powdery mildew; 100 ppm): 100%
protectant activity against wheat powdery mildew in vivo (wheat powdery mildew; 400 ppm): 100%
pest or weed control at 6.25 ppm (wheat powdery mildew; Triticum aestivum, 168 h, read-out: protectant activity against wheat powdery mildew in vivo, 6.25 ppm): 80 to 99%
protectant activity against corn rust in vivo (corn rust; 400 ppm): 100%
control (test results against green peach aphid) [1, 4]: 100%
protectant activity against cucumber downy mildew in vivo (cucumber downy mildew; 25 ppm): 100%
protectant activity against cucumber downy mildew in vivo (cucumber downy mildew; 50 ppm): 100%
protectant activity against cucumber downy mildew in vivo (cucumber downy mildew; 400 ppm): 100%
pest or weed control at 100 ppm (cucumber downy mildew; Cucumis sativus, 168 h): 100%
control against carmine spider mite (carmine spider mite; 600 ppm): 100%

Cc1ncnc(NCCc2ccc(Oc3ccc(Cl)cc3Cl)cc2)c1Cl [II-21]
protectant activity against corn rust in vivo (corn rust; 100 ppm): 100%
protectant activity against corn rust in vivo (corn rust; 400 ppm): 100%
control (test results against green peach aphid) [1, 4]: 100%
protectant activity against cucumber downy mildew in vivo (cucumber downy mildew; 50 ppm): 100%
protectant activity against cucumber downy mildew in vivo (cucumber downy mildew; 100 ppm): 100%
protectant activity against cucumber downy mildew in vivo (cucumber downy mildew; 400 ppm): 100%
control (test results against armyworm) (armyworm): 100%
control against carmine spider mite (carmine spider mite; 100 ppm): 100%
control against carmine spider mite (carmine spider mite; 600 ppm): 100%

FC(F)(F)c1ccc(Oc2ccc(CCNc3ncnc(C(F)(F)F)c3Cl)cc2)nc1 [Compound I-2748]
pest or weed control at 400 ppm (wheat powdery mildew; Triticum aestivum, 168 h, read-out: protectant activity against wheat powdery mildew in vivo, 400 ppm): 80 to 99%
pest or weed control at 400 ppm (corn rust; Zea mays, 168 h, read-out: protectant activity against corn rust in vivo, 400 ppm): 80 to 99%
pest or weed control at 600 ppm ([1]; Myzus persicae, foliar, 48 h, 600 ppm, death rate after 48 hrs): 100%
pest or weed control at 50 ppm (cucumber downy mildew; Cucumis sativus, 168 h, read-out: protectant activity against cucumber downy mildew in vivo, 50 ppm): 100%
pest or weed control at 100 ppm (cucumber downy mildew; Cucumis sativus, 168 h): 100%
pest or weed control at 400 ppm (cucumber downy mildew; Cucumis sativus, 168 h, read-out: protectant activity against cucumber downy mildew in vivo, 400 ppm): 100%
pest or weed control at 600 ppm (armyworm; 72 h): 80 to 99%

CCc1ncnc(NCCc2ccc(Oc3ccc(C(F)(F)F)cc3Cl)cc2)c1Cl [II-432]
control effect against wheat powdery mildew (%) (wheat powdery mildew; 0.4 mg/L): 50%
control effect against wheat powdery mildew (%) (wheat powdery mildew; 1.6 mg/L): 80%
control effect against wheat powdery mildew (%) (wheat powdery mildew; 6.25 mg/L): 100%
control effect against wheat powdery mildew (%) (wheat powdery mildew; 25 mg/L): 100%
control effect against wheat powdery mildew (%) (wheat powdery mildew; 100 mg/L): 100%
control effect against wheat powdery mildew (%) (wheat powdery mildew; 400 mg/L): 100%
protectant activity against wheat powdery mildew in vivo (wheat powdery mildew; 6.25 ppm): 100%
protectant activity against wheat powdery mildew in vivo (wheat powdery mildew; 25 ppm): 100%
protectant activity against wheat powdery mildew in vivo (wheat powdery mildew; 100 ppm): 100%
protectant activity against wheat powdery mildew in vivo (wheat powdery mildew; 400 ppm): 100%
control effect against corn rust (%) (corn rust; 0.4 mg/L): 15%
control effect against corn rust (%) (corn rust; 1.6 mg/L): 75%
control effect against corn rust (%) (corn rust; 6.25 mg/L): 100%
control effect against corn rust (%) (corn rust; 25 mg/L): 100%
control effect against corn rust (%) (corn rust; 100 mg/L): 100%
control effect against corn rust (%) (corn rust; 400 mg/L): 100%
protectant activity against corn rust in vivo (corn rust; 6.25 ppm): 100%
protectant activity against corn rust in vivo (corn rust; 25 ppm): 100%
protectant activity against corn rust in vivo (corn rust; 100 ppm): 100%
protectant activity against corn rust in vivo (corn rust; 400 ppm): 100%
control (test results against green peach aphid) [1, 3]: 100%
control (test results against green peach aphid) [1, 4]: 100%
protectant activity against cucumber downy mildew in vivo (cucumber downy mildew; 400 ppm): 100%
Insecticidal activity against carmine spider mite (% ) (carmine spider mite; 10 mg/L): 76%
Insecticidal activity against carmine spider mite (% ) (carmine spider mite; 100 mg/L): 100%
Insecticidal activity against carmine spider mite (% ) (carmine spider mite; 600 mg/L): 100%
control against carmine spider mite (carmine spider mite; 100 ppm): 100%
control against carmine spider mite (carmine spider mite; 600 ppm): 100%
